Values joined by “and” are separate entries in the source; they are usually repeats but may differ in a detail not shown here. Identical values can stand only once. “Also recorded” adds a separate entry of the source. Like-named read-outs stand apart in the source and are kept apart here.
Legend:
[1] = Safety results of the PK profile crossover study
seizure = assay: Rapid onset of therapeutic effect: seizure cessation measured by EEG after intranasal diazepam; conditions: for Time to Seizure Cessation: dosed during seizure, individual subjects
[2] = test system: seizure activity (beta frequency by EEG); assay: Change in beta frequency by EEG; conditions: intranasal 20 mg via intranasal composition
[3] = not given; remark: listed apart in the source
[4] = 24 subjects, all three diazepam treatments
[5] = safety population, 163 subjects

With `CN1C(=O)CN=C(c2ccccc2)c2cc(Cl)ccc21` [diazepam, 7-chloro-1,3-dihydro-1-methyl-5-phenyl-2H-1,4-benzodiazepin-2-one] the “AE: epistaxis” value [1, 4] was 7 subjects, the “AE: somnolence” value [1, 4] was 6 subjects and the “AE: somnolence” value ([1]; each of the intranasal dosages (suspension, solution)) was 1 subject. For the same compound, the reports of epistaxis ([1]; intranasal) was 3 events, the tolerability ([1]; intranasal suspension and solution, 10 mg) was “well-tolerated” and the “Time to Seizure Cessation” value (seizure; 10 mg intranasal) was 1 min and <1 min (2×). The “Time to Seizure Cessation” value (seizure; 15 mg intranasal) was <1 min (6×) and 1 min (2×), the “Time to Seizure Cessation” value (seizure; 20 mg intranasal) was <1 min (12×) and 1 min and the “Cessation of the seizure, as measured by EEG” value (seizure; 10, 15 or 20 mg intranasal during active seizure, all but one of the subjects) was ≤ 1 min. For the same compound, the “subsequent seizure during the period of observation” value (seizure; intranasal, dosed after seizure had ended) was “no subsequent seizure was experienced by any of the subjects”, the “TEAE: seizure, nasopharyngitis, nasal discomfort (each)” value (2 of 57 subjects each) was 3.5% and the “TEAE: dysgeusia” value (3 of 57 subjects) was 5.3%. For the same compound, the “PK profile in seizure versus non-seizure state” value (5-20 mg intranasal, subjects with epilepsy, any age group or dose) was “not notably altered”, the “subjects with treatment-related AEs” value (8 of 57 subjects) was 14.0% and the “subjects with at least one AE” value (17 out of 57 subjects) was 29.8%. The suicidal ideation post-dosing (57 subjects) was “No subjects”, the “time to changes in beta frequency (EEG)” value [2] was ≤ 6 min and the respiratory depression ([3]; 163 subjects) was “no incidents”. For the same compound, the “Treatment-related AE: epistaxis, dysgeusia, somnolence (each)” value [3, 5] was 3 subjects, the “Treatment-related AE: headache” value [3, 5] was 4 subjects and the “Treatment-related AE: nasal discomfort” value [3, 5] was 10 subjects. For the same compound, the “each of the 14 single-subject treatment-related AEs (nasal mucosal disorder to rash)” value [3, 5] was 0.6%, the “subjects with at least one AE” value [3, 5] was 134 subjects and the “subjects with at least one AE/TEAE” value [3, 5] was 82.2%. For the same compound, the “subjects with treatment-related AEs” value [3, 5] was 30 subjects, the “subjects with treatment-related AEs/TEAEs” value [3, 5] was 18.4% and the “treatment-related AEs that were serious” value [3, 5] was “None”. For the same compound, the overall safety conclusion ([3]; subjects with epilepsy, intranasal) was “safe and well tolerated; also recorded: good safety profile”.

Reference: US20240299290A1, “METHODS AND COMPOSITIONS FOR RAPID DELIVERY OF ANTI-SEIZURE THERAPEUTICS” (Neurelis, Inc., priority 2021, published 2024)
